Columns and labels:
c-Src [1] = target: T1, c-Src (Homo sapiens, UniProt P12931); experiment: Homogeneous time-resolved fluorescence (HTRF) assay, KinEASE-TK kit; format: biochemical; settings: 120 min incubation, n=3 for DC-Srci-6668, read-out: IC50, inhibition of c-Src catalytic activity
Procedure: Based on this, covalent docking was performed against an in-house compound library, consisting of 720 compounds with reactive chemical groups. After score ranking and cluster analysis (FIG. 6B), 16 compounds were selected and purchased from ChemDiv (San Diego, CA, USA) for subsequent biochemical evaluations. Although IC50 values are time-dependent for covalent inhibitor and cannot be used to fully characterize the true binding affinity, they are also recognized as an indicator for preliminary evaluating the biological activity of covalent compounds. The homogeneous time resolved fluorescence (HTRF) assay was then conducted to determine the compound inhibitory activity, using the HTRF KinEASE-TK kit (Cisbio, Bedford, MA, USA). […] The cells were infected with baculovirus at 27° C. for 48-72 hours before collection. Cells were lysed in buffer containing 20 mM Hepes pH=7.4, 150 mM NaCl, 1 mM DTT, 1× protease inhibitor cocktail (Roche) and 1 mM PMSF. […] The ability of compounds to inhibit the phosphorylation of a peptide substrate by c-Src kinase was evaluated by homogeneous time-resolved fluorescence (HTRF) using KinEASE-TK kit (Cisbio, Bedford, MA, USA). […] Finally, fluorescence was measured at 615 nm and 665 nm using EnVision reader (PerkinElmer). The results were calculated as follows: ratio=OD665/OD615 and the IC50 values were analyzed in Graphpad Prism 8.0.

[2] = target: c-Src Y419 autophosphorylation (His-tag Src-k protein) (Homo sapiens, UniProt P12931); experiment: Amplified Luminescent Proximity Homogeneous Assay (ALPHA), auto-phosphorylation of c-Src Y419; format: biochemical; settings: 90 min incubation, n=3, read-out: IC50, inhibition of autophosphorylation of c-Src Y419
Chain of c-Src Y419 autophosphorylation (His-tag Src-k protein) (P12931 254-536): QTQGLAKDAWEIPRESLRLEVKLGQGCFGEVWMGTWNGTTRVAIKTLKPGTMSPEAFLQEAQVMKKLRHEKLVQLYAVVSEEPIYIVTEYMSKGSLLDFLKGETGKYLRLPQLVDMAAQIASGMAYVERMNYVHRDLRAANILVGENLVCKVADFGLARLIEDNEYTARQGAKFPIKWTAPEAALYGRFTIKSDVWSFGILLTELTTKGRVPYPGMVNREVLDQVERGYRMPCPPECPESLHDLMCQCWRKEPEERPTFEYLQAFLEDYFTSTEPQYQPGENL
Procedure: Human c-Src kinase domain (Src-k, including WT and C280S, 254-536) with a TEV protease cleavable N-terminal 6×-His tag was cloned into pET28a vector and co-expressed with full length YopH phosphatase cloned to pCDFDuet-1 vector in Escherichia coli BL21 (DE3) cells. Cells were cultured in LB medium at 37° C. and induced with 0.4 mM IPTG at 18° C. for 16 hours. Proteins were purified using HisTrap FF column (GE Healthcare) in buffer containing 50 mM Hepes pH=8.0, 500 mM NaCl, 5% glycerol and imidazole (25 mM for loading, 150 mM for elution). After TEV enzyme cleavage, proteins were loaded to Hitrap Q FF (GE Healthcare) in buffer containing 20 mM Hepes pH=8.0, 5% glycerol, 1 mM DTT (QA) and eluted with a linear gradient of 10-30% buffer QB (buffer QA plus 1M NaCl). Then proteins were further purified by Superdex75™ 10/300 GL column (GE Healthcare) and change the buffer to 20 mM Hepes pH=7.4, 150 mM NaCl, 1 mM DTT. The ability of compounds to inhibit the auto-phosphorylation of c-Src Y419 was determined by Amplified Luminescent Proximity Homogeneous Assay (ALPHA). ALPHA assay was carried out in assay buffer containing 20 mM Hepes, pH=7.4, 0.1% Triton X-100, 1 mM DTT, 0.1% bovine serum albumin (w/v)). […] Finally, the signals were measured in ALPHA protocol using EnVision reader and the IC50 values analyzed in Graphpad Prism 8.0.

c-Src (Src-k protein) = c-Src (Src-k protein) (Homo sapiens, UniProt P12931); experiment: Protein thermal shift (PTS) assay; format: binding
Chain of c-Src (Src-k protein) (P12931 254-536): as above
Procedure: Human c-Src kinase domain (Src-k, including WT and C280S, 254-536) with a TEV protease cleavable N-terminal 6×-His tag was cloned into pET28a vector and co-expressed with full length YopH phosphatase cloned to pCDFDuet-1 vector in Escherichia coli BL21 (DE3) cells. Cells were cultured in LB medium at 37° C. and induced with 0.4 mM IPTG at 18° C. for 16 hours. Proteins were purified using HisTrap FF column (GE Healthcare) in buffer containing 50 mM Hepes pH=8.0, 500 mM NaCl, 5% glycerol and imidazole (25 mM for loading, 150 mM for elution). After TEV enzyme cleavage, proteins were loaded to Hitrap Q FF (GE Healthcare) in buffer containing 20 mM Hepes pH=8.0, 5% glycerol, 1 mM DTT (QA) and eluted with a linear gradient of 10-30% buffer QB (buffer QA plus 1M NaCl). Then proteins were further purified by Superdex75TM 10/300 GL column (GE Healthcare) and change the buffer to 20 mM Hepes pH=7.4, 150 mM NaCl, 1 mM DTT. Protein thermal shift (PTS) assays were performed on a QuantStudioTM 6 Flex Real-time PCR system (Applied Biosystems). […] Src-k protein, 5×SYPRO® orange (Molecular Probes) and different concentrations of compounds were mixed in 20 μL final buffer and added to 96-well plates (DN Biotech). According to the standard protocol, the reaction system was heated from 25° C. to 95° C. within 25 minutes, and the fluorescence signal was monitored in real time. Protein […] ShiftTM Software Version 1.2 (Life Technologies) was used to determine the Tm value and Graphpad Prism 8.0 was used to draw the curves. The Y419-phosphorylated protein used was obtained by incubating Src-k protein with 5 mM MgCl2 and 10 mM ATP overnight, and then desalting it into final buffer.

c-Src [3] = target: T1, c-Src; experiment: Intact protein mass by HPLC/MS, covalent binding; settings: about 20 μM c-Src, 100 μM compound, 4° C., 8 hours; expected 316.34 Da for a single covalent adduct
Procedure: c-Src protein was diluted to approximately 20 μM in final buffer and incubated with compound at a final concentration of 100 μM or same volume of DMSO at 4° C. for 8 hours. Then, the protein samples were diluted into aqueous solution containing 0.1% formic acid (about 1 mg/mL), and 2 μg of the target protein samples were took for LC/MS analysis. Intact protein high-resolution mass spectrometry was performed using Ultimate 3000 LC liquid chromatograph and LTQ Orbitrap mass spectrometer equipped with HESI ion source (Thermo Fisher, CA). BioPharma Finder software (version 2.0, Thermal Fischer, California) was used to process the raw LC-MS data, and the […] deconvolution algorithm was used to obtain the intact protein masses.

T1 sequence (P12931 86-536): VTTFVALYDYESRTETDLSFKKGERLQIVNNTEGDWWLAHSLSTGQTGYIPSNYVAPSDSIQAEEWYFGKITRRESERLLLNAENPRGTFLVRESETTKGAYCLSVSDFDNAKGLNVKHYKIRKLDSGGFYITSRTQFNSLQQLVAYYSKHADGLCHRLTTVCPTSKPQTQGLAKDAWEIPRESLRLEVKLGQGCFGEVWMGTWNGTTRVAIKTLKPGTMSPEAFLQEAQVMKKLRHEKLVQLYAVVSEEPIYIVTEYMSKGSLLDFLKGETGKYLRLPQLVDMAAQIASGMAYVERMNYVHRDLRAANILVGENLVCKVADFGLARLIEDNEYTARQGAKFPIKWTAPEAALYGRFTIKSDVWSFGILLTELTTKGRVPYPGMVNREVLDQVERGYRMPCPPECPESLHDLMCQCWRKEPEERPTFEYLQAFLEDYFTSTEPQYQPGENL

O=C(NC1CCCC1)C(c1ccc(F)cc1)N(C(=O)CCl)C1CC1 (stereo not drawn) [DC-Srci-6668]
IC50 (c-Src [1]): 2.39 ± 0.164 µM | IC50 [2]: 3.88 ± 0.586 µM | positive Tm shift of c-Src (c-Src (Src-k protein); concentration ratio 1:5): 1.50 °C | positive Tm shift of c-Src (c-Src (Src-k protein); concentration ratio 1:10): 2.56 °C | positive Tm shift of c-Src (c-Src (Src-k protein); concentration ratio 1:20): 3.30 °C | increase of MW of c-Src after compound treatment (c-Src [3]): 316.64 Da

Source: patent US20250125004A1, “SYSTEMS AND METHODS FOR POST-TRANSLATIONAL MODIFICATION-INSPIRED DRUG DESIGN AND SCREENING” (Ensem Therapeutics, Inc., priority 2021, published 2025)
